Results taken from patent US20240327393A1 (SIRONAX LTD., priority 2021, published 2024).

Tested on: HT-1080 (ATCC, CCL-121) cells
Experiment: HT-1080 cell viability assay with ferroptosis inducer RSL3 (Cell Titer-Glo)
Type: cell-based
Settings: HT-1080 cells treated with RSL3; 3-fold, 10-point dilution, 1.1 μM highest concentration; Table 3; read-out: EC50 (nM), ferroptosis inhibitory activity
Protocol: Example 2. Determination of EC50 Values in HT-1080 Cell Viability Assay
HT-1080 (ATCC, CCL-121) cells (6000 in 100 μl) were seeded in 96-well plates (Corning) and cultured in a 37° C. incubator with a humidified atmosphere of 5% CO2 for overnight. Cells were then treated with ferroptosis inducer RSL3 (TargetMol) and a 3-fold, 10-point serial dilution series of compounds with 1.1 μM as the highest concentration, […]. Cell viability was assessed using the Cell Titer-Glo Kit (Promega). The luminescence intensity was measured with a microplate reader (Envision, PerkinElmer), and cell viability was calculated by normalizing the data to untreated controls. The EC50 values of the compounds (e.g., Compounds 1-659) were calculated in GraphPad Prism (GraphPad Software, Inc., San Diego, CA, USA). The curves were fitted using a non-linear regression model with a sigmoidal dose response.

| EC50 | Compound |
| --- | --- |
| 0.1 to 100 nM | CC1CN(c2ccc(Nc3ccc4c(c3)nnn4C)cc2)CC(C)O1 (stereo not drawn) [Compound 458, N-(4-(2,6-dimethylmorpholino)phenyl)-1-methyl-1H-benzo[d][1,2,3]triazol-5-amine] |
| 0.1 to 100 nM | Cc1cc(N2CCC(C(F)(F)F)CC2)ccc1Nc1ccc2c(c1)OCC(=O)N2 [Compound 515, 7-((2-methyl-4-(4-(trifluoromethyl)piperidin-1-yl)phenyl)amino)-2H-benzo[b][1,4]oxazin-3(4H)-one] |

Same assay, conditions: Homo sapiens; HT-1080 cells treated with RSL3; 3-fold, 10-point dilution, 1.1 μM highest concentration; Table 2; read-out: EC50 (nM), ferroptosis inhibitory activity

| EC50 | Compound |
| --- | --- |
| 0.1 to 100 nM | CCN(CC)c1ccc(Nc2ccc3c(c2)OCC(=O)N3C)cc1 [Compound 22, 7-((4-(diethylamino)phenyl)amino)-4-methyl-2H-benzo[b][1,4]oxazin-3(4H)-one] |
| 0.1 to 100 nM | Cc1nc2ccc(Nc3ccc(N4CCC(C(F)(F)F)CC4)cc3)cc2o1 [Compound 323, 2-methyl-N-(4-(4-(trifluoromethyl)piperidin-1-yl)phenyl)benzo[d]oxazol-6-amine] |
| 0.1 to 100 nM | CC1CCN(c2ccc(Nc3ccc4c(c3)C(C)(C)CN4C)cc2)CC1 [Compound 311, 1,3,3-trimethyl-N-(4-(4-methylpiperidin-1-yl)phenyl)indolin-5-amine] |
| 0.1 to 100 nM | Cc1cc(C)c(Nc2ccc3c(c2)CN(C)C3=O)cn1 [Compound 236, 5-((4,6-dimethylpyridin-3-yl)amino)-2-methylisoindolin-1-one] |
| 0.1 to 100 nM | Cc1cc(N2CCC(C(F)(F)F)CC2)c(F)cc1Nc1ccc2c(c1)OCC(=O)N2C [Compound 59, 7-((5-fluoro-2-methyl-4-(4-(trifluoromethyl)piperidin-1-yl)phenyl)amino)-4-methyl-2H-benzo[b][1,4]oxazin-3(4H)-one] |
| 0.1 to 100 nM | CC1CCN(c2ccc(Nc3ccc4c(c3)n(C)c(=N)n4C)cc2)CC1 [Compound 345, 2-imino-1,3-dimethyl-N-(4-(4-methylpiperidin-1-yl)phenyl)-2,3-dihydro-1H-benzo[d]imidazol-5-amine] |
| 0.1 to 100 nM | Cc1cc(Nc2ccc3c(c2)n(C)c(=O)n3C)cnc1N1CCC(C(F)(F)F)CC1 [Compound 371, 1,3-dimethyl-5-((5-methyl-6-(4-(trifluoromethyl)piperidin-1-yl)pyridin-3-yl)amino)-1,3-dihydro-2H-benzo[d]imidazol-2-one] |
| 0.1 to 100 nM | FC(F)(F)C1CCN(c2ccc(Nc3ccc4cnoc4c3)cc2)CC1 [Compound 358, N-(4-(4-(trifluoromethyl)piperidin-1-yl)phenyl)benzo[d]isoxazol-6-amine] |
| 0.1 to 100 nM | Cn1ncc2cc(Nc3ccc(N4CCC(C(F)(F)F)CC4)cc3)ccc21 [Compound 364, 1-methyl-N-(4-(4-(trifluoromethyl)piperidin-1-yl)phenyl)-1H-indazol] |
| 0.1 to 100 nM | CC(=O)N1Cc2ccc(Nc3ccc(N4CCC(C(F)(F)F)CC4)cc3)cc2C1 [Compound 186, 1-(5-((4-(4-(trifluoromethyl)piperidin-1-yl)phenyl)amino)isoindolin-2-yl) ethan-1-one] |
| 0.1 to 100 nM | CC1CN(c2c(F)cc(Nc3ccc4c(c3)OCC(=O)N4)cc2F)CC(C)O1 (stereo not drawn) [Compound 159, 7-((4-(2,6-dimethylmorpholino)-3,5-difluorophenyl)amino)-2H-benzo[b][1,4]oxazin-3(4H)-one] |
| 0.1 to 100 nM | CN1C(=O)COc2cc(Nc3ccc(C4CCC(C)(C)CC4)cc3)ccc21 [Compound 35, 7-((4-(4,4-dimethylcyclohexyl)phenyl)amino)-4-methyl-2H-benzo[b][1,4]oxazin-3(4H)-one] |
| 0.1 to 100 nM | CN1C(=O)COc2cc(Nc3ccc(F)c(N4CCC(C(F)(F)F)CC4)c3)ccc21 [Compound 33, 7-((4-fluoro-3-(4-(trifluoromethyl)piperidin-1-yl)phenyl)amino)-4-methyl-2H-benzo[b][1,4]oxazin-3(4H)-one] |
| 0.1 to 100 nM | CN1Cc2cc(Nc3ccc(N4CCCC(C(F)(F)F)C4)cc3)ccc2C1=O (stereo not drawn) [Compound 242, 2-methyl-5-((4-(3-(trifluoromethyl)piperidin-1-yl)phenyl)amino) isoindolin-1-one] |
| 0.1 to 100 nM | CCN(CC)c1ccc(Nc2ccc3c(c2)n(C)c(=O)n3C)cc1 [Compound 268, 5-((4-(diethylamino)phenyl)amino)-1,3-dimethyl-1,3-dihydro-2H-benzo[d]imidazol-2-one] |
| 0.1 to 100 nM | COCCn1c(=O)n(C)c2cc(Nc3ccc(N4CCC(C(F)(F)F)CC4)cc3)ccc21 [Compound 354, 1-(2-methoxyethyl)-3-methyl-5-((4-(4-(trifluoromethyl)piperidin-1-yl)phenyl)amino)-1,3-dihydro-2H-benzo[d]imidazol-2-one] |
| 0.1 to 100 nM | CN1CCC(N2Cc3cc(Nc4ccc(N5CCC(C(F)(F)F)CC5)cc4)ccc3C2=O)CC1 [Compound 208, 2-(1-methylpiperidin-4-yl)-5-((4-(4-(trifluoromethyl)piperidin-1-yl)phenyl)amino)isoindolin-1-one] |
| 0.1 to 100 nM | COc1cc(N2CCC(C(F)(F)F)CC2)ccc1Nc1ccc2c(c1)OCC(=O)N2C [Compound 90, 7-((2-methoxy-4-(4-(trifluoromethyl)piperidin-1-yl)phenyl)amino)-4-methyl-2H-benzo[b][1,4]oxazin-3(4H)-one] |
| 0.1 to 100 nM | CNCCN1C(=O)COc2cc(Nc3ccc(N4CCC(C(F)(F)F)CC4)cc3)ccc21 [Compound 43, 4-(2-(methylamino)ethyl)-7-((4-(4-(trifluoromethyl)piperidin-1-yl)phenyl)amino)-2H-benzo[b][1,4]oxazin-3(4H)-one] |
| 0.1 to 100 nM | Cn1ccc2cc(Nc3ccc(N4CCC(C(F)(F)F)CC4)cc3)ccc21 [Compound 347, 1-methyl-N-(4-(4-(trifluoromethyl)piperidin-1-yl)phenyl)-1H-indol-5-amine] |
| 0.1 to 100 nM | Cc1cc(N2CC(C)OC(C)C2)ccc1Nc1cc(F)c2c(c1)OCC(=O)N2C (stereo not drawn) [Compound 141, ((4-(2,6-dimethylmorpholino)-2-methylphenyl)amino)-5-fluoro-4-methyl-2H-benzo[b][1,4]oxazin-3(4H)-one] |
| 100 to 1000 nM | CN1C(=O)COc2cc(Nc3ccc4c(c3)C(C)(C)CC4(C)C)ccc21 [Compound 39, 4-methyl-7-((1,1,3,3-tetramethyl-2,3-dihydro-1H-inden-5-yl)amino)-2H-benzo[b][1,4]oxazin-3(4H)-one] |

| Compound | EC50 |
| --- | --- |
| NC(=O)NCCN1C(=O)COc2cc(Nc3ccc(N4CCC(C(F)(F)F)CC4)cc3)ccc21 [Compound 40, 1-(2-(3-oxo-7-((4-(4-(trifluoromethyl)piperidin-1-yl)phenyl)amino)-2,3-dihydro-4H-benzo[b][1,4]oxazin-4-yl)ethyl)urea] | 0.1 to 100 nM |

Same assay, conditions: Homo sapiens; HT-1080 cells treated with RSL3; 3-fold, 10-point dilution, 1.1 μM highest concentration; Table 3; read-out: EC50 (nM), ferroptosis inhibitory activity

| EC50 | Compound |
| --- | --- |
| 0.1 to 100 nM | Cc1cc(N2CCC(C(F)(F)F)CC2)ccc1Nc1ccc2c(c1)CC(N)C(=O)N2 (stereo not drawn) [Compound 598, 3-amino-6-((2-methyl-4-(4-(trifluoromethyl)piperidin-1-yl)phenyl)amino)-3,4-dihydroquinolin-2(1H)-one] |
| 0.1 to 100 nM | COC1(C(F)(F)F)CN(c2ccc(Nc3ccc4c(c3)OCC(=O)N4)c(C)c2)C1 [Compound 633, 7-({4-[3-methoxy-3-(trifluoromethyl)azetidin-1-yl]-2-methylphenyl}amino)-2,4-dihydro-1,4-benzoxazin-3-one] |
| 0.1 to 100 nM | Cc1cc(N2CC(C)OC(C)C2)ccc1Nc1cnc2c(c1)OCC(=O)N2 (stereo not drawn) [Compound 462, 7-((4-(2,6-dimethylmorpholino)-2-methylphenyl)amino)-2H-pyrido[3,2-b][1,4]oxazin-3(4H)-one] |
| 0.1 to 100 nM | Cc1cc(N2CCC(F)(F)CC2)ccc1Nc1ccc2c(c1)OCC(=O)N2 [Compound 525, 7-((4-(4,4-difluoropiperidin-1-yl)-2-methylphenyl)amino)-2H-benzo[b][1,4]oxazin-3(4H)-one] |
| 0.1 to 100 nM | CC1CN(c2ccc(Nc3ccc4c(c3)OCC(=O)N4)cc2)CC(C(F)(F)F)O1 (stereo not drawn) [Compound 561, 7-((4-(2-methyl-6-(trifluoromethyl)morpholino)phenyl)amino)-2H-benzo[b][1,4]oxazin-3(4H)-one] |
| 0.1 to 100 nM | Cc1cc(N2CCC(C(F)(F)F)CC2)ccc1Nc1ccc2[nH]c(=O)oc2c1 [Compound 496, 6-((2-methyl-4-(4-(trifluoromethyl)piperidin-1-yl)phenyl)amino) benzo[d]oxazol-2(3H)-one] |
| 0.1 to 100 nM | Cc1cc(N2CC(C)(F)C2)ccc1Nc1ccc2c(c1)OCCC(=O)N2 [Compound 623] |
| 0.1 to 100 nM | Cc1cc(N2CC(F)(F)C2)ccc1Nc1ccc2c(c1)OCC(N)C(=O)N2 (stereo not drawn) [Compound 627, 3-amino-8-((4-(3,3-difluoroazetidin-1-yl)-2-methylphenyl)amino)-2,3-dihydrobenzo[b][1,4]oxazepin-4(5H)-one] |
| 0.1 to 100 nM | Cc1cc(N2CCC(C)CC2)ccc1Nc1cnc2c(c1)OCC(=O)N2 [Compound 575, 7-((2-methyl-4-(4-methylpiperidin-1-yl)phenyl)amino)-2H-pyrido[3,2-b][1,4]oxazin-3(4H)-one] |
| 0.1 to 100 nM | Cc1cc(N2CCC(C(F)(F)F)CC2)ccc1Nc1ccc2c(c1)OCC(O)C(=O)N2 (stereo not drawn) [Compound 646, 3-hydroxy-8-((2-methyl-4-(4-(trifluoromethyl)piperidin-1-yl)phenyl)amino)-2,3-dihydrobenzo[b][1,4]oxazepin-4(5H)-one] |
| 0.1 to 100 nM | Cc1cc(N2CC(OC(F)(F)F)C2)ccc1Nc1ccc2c(c1)OCCC(=O)N2 [Compound 614, 8-((2-methyl-4-(3-(trifluoromethoxy)azetidin-1-yl)phenyl)amino)-2,3-dihydrobenzo[b][1,4]oxazepin-4(5H)-one] |
